# According to PMC7552967, “Anti-Melanoma Activities of Artemisone and Prenylated Amino-Artemisinins in Combination With Known Anticancer Drugs” (Frontiers in Pharmacology, 2020):
# Key:
# [1] = tested on: HaCat normal keratinocytes; test: MTT cell viability assay, HaCat; format: cell-based, human; details: 24 h; for CC50: Homo sapiens, HaCaT, combinations 1:1, mean ± SD, read-out: HaCat IC50
# Source text: (§1) The human cell lines TK10 (human kidney adenocarcinoma), UACC62 (human melanoma) and MCF7 (human breast adenocarcinoma) were obtained from the National Cancer Institute (NCI) as part of a panel widely studied for drug screening and molecular target identification. […] The nontumorigenic human immortalized keratinocyte (HaCaT) cells were a kind donation by the School of Anatomical Sciences, Faculty of Health Sciences, University of the Witwatersrand, South Africa. […] All reagents were of analytical grade and were obtained from Merck (Darmstadt, Germany) unless stated otherwise. Cells were cultured in Dulbecco’s modified essential medium (DMEM; Hyclone, GE healthcare, South Logan, UT, USA) containing 10% fetal bovine serum (FBS), 1% penicillin/streptomycin, 1% 200 mM L-Glutamine and 1% nonessential amino acids (Lonza, Basel, Switzerland) at 37°C in a humidified atmosphere of 5% CO2. Stock solutions of the compounds were prepared in dimethyl sulfoxide (DMSO). All subsequent dilutions were prepared in serum-free DMEM and vehicle controls were included in all experiments
# (§2) The growth inhibitory effects of the compounds were tested in the 3-cell line panel consisting of TK10 (renal), UACC62 (melanoma) and MCF7 (breast) cancer cells by Sulforhodamine B (SRB) assay. […] Compounds prepared in DMSO were tested at 0.01–100 µM serial dilutions to establish initial inhibitory concentrations. […] After 24 h exposure to compounds, growth medium was removed, cells rinsed twice with 1 ml of phosphate buffered saline (PBS) and 100 µl fresh serum-free medium containing 5 mg/ml MTT solution was added MTT solution was prepared fresh for each analysis). Cells were then incubated for 4 h at 37°C, after which the MTT was removed and substituted with 100 µl dimethyl sulfoxide (DMSO) to dissolve the formazan crystals for an h at 37°C. After incubation, cell viability was determined using a microplate reader (BioTek®, Vermont, USA) at an excitation wavelength of 560 nm and emission wavelength of 630 nm with DMSO measured as a blank. Cell viability was expressed as a percentage relative to the untreated control, which is assumed to be 100% viable. For a positive control, cells were treated with 0.01% Triton-X 100 (Sigma-Aldrich, St Louis, MO, USA) for a period of 4 h. Using the MTT assay data, IC50 values were calculated using GraphPad Prism 8. Data were normalized to the positive (alleged to be 0% viable) and negative controls (presumed to be 100% viable), followed by the log-transformation of the concentration values. […] A crude therapeutic index (fold decrease in IC50 value) was calculated as the IC50 of the noncancerous cell-line/IC50 of the cancerous cell line. […] Drug interactions were evaluated for synergism, additivity or antagonism using multiple drug effect analysis, based on the median-principle. Cells were treated with the drug combinations for 24 h and analyzed. The CompuSyn (ComboSyn, Inc. NJ, USA) software package was used to generate the median-effect plots and combination index plots. […] All experiments were performed at least in triplicate and repeated independently.
# (§3) Next, the quantitative colorimetric MTT assay was used to determine in vitro cell viability with A375 (melanoma) and HaCat (nonmalignant keratinocyte) cells. […] The IC50 was used to determine a crude therapeutic index (fold increase or decline in IC50).
# [2] = tested on: HaCat normal keratinocytes; test: LDH release membrane integrity assay, HaCat; details: compounds at their IC50 concentrations, 24 h; combinations 1:1; relative to maximum release
# Source text: (§4) In order to determine cell membrane integrity, the CytoTox-ONE™ Homogeneous Membrane Integrity Assay (Promega, Madison, WO, USA) was employed. This fluorometric assay measures the release of LDH from cells with damaged cell membranes. […] The manufacturer’s instructions were followed to determine the fluorescence at an excitation wavelength of 560 nm and an emission wavelength of 590 nm. In order to calculate the percentage cytotoxicity, the average fluorescent values of the background medium were subtracted from all average fluorescent values of the experimental samples and the positive control. Cytotoxicity is expressed as a percentage relative to the positive control, which is assumed to be responsible for 100% LDH release. The fold increase in LDH release was taken as the indication of the selectivity toward melanoma cell membranes, calculated as the […]. All experiments were performed at least in triplicate and independently repeated. Statistical significant differences were calculated with one-way ANOVA.
# (§5) Results are expressed relative to the untreated control and the maximum release sample, which was set as having 0% and 100% LDH release respectively. The LDH released from the nonmalignant HaCat cells and the A375 melanoma cells was then used to deduce the selectivity of the compounds against melanoma cell membranes.
# [3] = tested on: A375 melanoma cells; test: LDH release membrane integrity assay, A375; format: cell-based, human; details: for LDH release, result in words: IC50 concentrations, 24 h (Table 3, Figure 6C); for A375 (% LDH release): compounds at their IC50 concentrations, 24 h, combinations 1:1, relative to maximum release
# Source text: as §4, §5
# [4] = tested on: A375 melanoma cells; test: MTT cell viability assay, A375; format: cell-based, human; details: for IC50: MTT, 24 h, combinations 1:1
# Source text: as §1, §2, §3
# [5] = tested on: HaCat normal keratinocytes; test: Intracellular ROS, DCFH-DA assay, HaCat; format: cell-based, human; details: 12 h treatment, result in words
# Experimental: HaCat and A375 cells were seeded at 25,000 cells/well in 96-well plates (Black plate, Clear bottom, Corning, Costar®, NY, USA) and incubated until cells were ~90% confluent. Serum-free DMEM without phenol red (Thermo Fisher Scientific, Gibco, Carlsbad, CA, USA) was used for all experiments. Cells were exposed to compounds or H2O2 (500 µM) for 12 h. Cell staining with ROS fluorescent indicator 2’,7’-dichlorodihydrofluorescein diacetate (DCFH-DA) was performed 1.5 h before the end of the 12-h exposure time. A kinetic analysis was then performed at 37°C using a microplate reader (SpectraMax® ParadigmTM Molecular Devices, Sunnyvale, CA, USA) by measuring the DCF fluorescence (excitation 485 nm and emission 535 nm) every 10 min for 1 h. […] The Bradford assay (Coomassie blue colorimetric method) was then performed in order to determine the relative amount of protein per well, as an indication of cell number per well, and all fluorescence measurements were normalized relative to the cell number. The background fluorescence produced by blank medium controls and unstained but treated cell controls were subtracted from DCFH-DA stained cells. The DCF fluorescence measured at the beginning of the analysis (time 0) was subtracted from the DCF fluorescence at the indicated times for the kinetic analysis (results not shown). […]
# The levels of intracellular ROS were determined using the DCFH-DA assay. […]
SMILES,CC50 [1],HaCat (% LDH release) [2],"LDH release, result in words [3]",A375 (% LDH release) [3],"IC50 ([4]; Homo sapiens, A-375, mean ± SD)","IC50 ([1]; results from elesclomol-Cu(II) reported in nM, combinations 1:1)",Intracellular ROS (DCF fluorescence fold change vs untreated control) [5],"Fold increase in LDH release ([3]; selectivity toward melanoma cell membranes, A375 vs HaCat)",Therapeutic index (TI) ([4]; IC50 of HaCat cells/IC50 of A375 cells),IC50 ([4]; results from elesclomol-Cu(II) reported in nM)
"COc1cc([C@@H]2c3cc4c(cc3[C@@H](O[C@@H]3O[C@@H]5CO[C@@H](C)O[C@H]5[C@H](O)[C@H]3O)[C@H]3COC(=O)[C@H]23)OCO4)cc(OC)c1O [Etoposide 9, etoposide]",> 13000 µM,7 ± 0.31%,did not significantly increase the release of LDH,11 ± 0.56%,43700 ± 1370 nM,,,,,
"CN([N-]C(=O)CC(=O)[N-]N(C)C(=[SH+])c1ccccc1)C(=[SH+])c1ccccc1.[Cu] [Elesclomol-Cu(II) 1-Cu, elesclomol-Cu(II)]",,16 ± 0.79%,did not significantly increase the release of LDH,21 ± 0.94%,,4.88 ± 0.56 nM,no significant increased intracellular ROS,1.3,2.8,1.72 ± 0.23 nM
"O=C(O)c1cc(/N=N/c2ccc(S(=O)(=O)Nc3ccccn3)cc2)ccc1O [Sulfasalazine 8, sulfasalazine]",2223 ± 5.37 µM,35 ± 1.02%,did not significantly increase the release of LDH,21 ± 0.96%,569800 ± 2950 nM,,,,,
